Experimental data from PMC7180572, “5-Alkylamino-N-phenylpyrazine-2-carboxamides: Design, Preparation, and Antimycobacterial Evaluation” (Molecules, 2020).
Converted amounts (≈) assume the structure as drawn. Like-named read-outs stand apart in the source and are kept apart here.

How the values were obtained:
[1] = tested on: Mycobacterium tuberculosis H37Ra ITM-M006710 (ATCC 9431); assay: Microdilution broth, modified Microplate Alamar Blue Assay, whole cell growth inhibition; format: cell-based; conditions: Mycobacterium tuberculosis, read-out: MIC Mtb H37Ra
[2] = tested on: Mycobacterium smegmatis DSM 43465 (ATCC 607); assay: as above; format: cell-based; conditions: Mycolicibacterium smegmatis, read-out: MIC Mycobacterium smegmatis
HepG2 cells = assay: HepG2 cytotoxicity, CellTiter 96 (MTS) assay; format: cell-based, human; conditions: for IC50: Homo sapiens, read-out: HepG2 IC50
[3] = tested on: Mycobacterium aurum DSM 43999 (ATCC 23366); assay: Microdilution broth, modified Microplate Alamar Blue Assay, whole cell growth inhibition; format: cell-based; conditions: Mycolicibacterium aurum, read-out: MIC Mycobacterium aurum
[4] = format: physicochemical
Procedure: As a complementary test, final compounds were tested for in vitro activity against selected fungal and bacterial pathogens of clinical importance. The microdilution broth method was performed according to The European Committee on Antimicrobial Susceptibility Testing (EUCAST) instructions with slight modifications. The minimum inhibitory concentration was expressed in µM. Not all compounds were evaluated due to the fact of a problem with solubility which occurred for 18 samples. […] See Supplementary Materials for the list of tested strains, methodology, and full results.

[5] = tested on: M. kansasii CNCTC My 235/80 (ATCC 12478); assay: 96 well plate microdilution broth method with Alamar Blue; format: cell-based; conditions: Mycobacterium kansasii
[6] = tested on: M. avium ssp. avium CNCTC My 80/72 (ATCC 15769); assay: as above; format: cell-based; conditions: Mycobacterium avium
[7] = tested on: Pseudomonas aeruginosa ATCC 27853, CCM 3955; assay: Antibacterial microdilution broth method (EUCAST); format: cell-based; conditions: read-out: MIC PA
[8] = tested on: Candida albicans ATCC 24433, CCM 8320; assay: Antifungal microdilution broth method (EUCAST); format: cell-based; conditions: read-out: MIC CA
[9] = tested on: Candida tropicalis ATCC 750, CCM 8264; assay: Antifungal microdilution broth method (EUCAST); format: cell-based; conditions: read-out: MIC CT
[10] = tested on: Staphylococcus aureus spp.aureus ATCC 29213, CCM 4223; assay: Antibacterial microdilution broth method (EUCAST); format: cell-based; conditions: read-out: MIC SA
[11] = tested on: Staphylococcus aureus methicillin resistant ATCC 43300, CCM 4750; assay: microbe, parasite or virus in culture; format: cell-based; conditions: ATCC 43300 / CCM 4750 / MRSA, read-out: MIC MRSA
[12] = tested on: Candida parapsilosis ATCC 22019, CCM 8260; assay: Antifungal microdilution broth method (EUCAST); format: cell-based; conditions: Lodderomyces parapsilosis, read-out: MIC CP
[13] = tested on: Staphylococcus epidermidis ATCC 12228, CCM 4418; assay: Antibacterial microdilution broth method (EUCAST); format: cell-based; conditions: read-out: MIC SE
[14] = tested on: Klebsiella pneumoniae ATCC 10031, CCM 4415; assay: Antibacterial microdilution broth method (EUCAST)
[15] = tested on: Aspergillus flavus CCM 8363; assay: Antifungal microdilution broth method (EUCAST); format: cell-based; conditions: read-out: MIC AFla
[16] = tested on: Aspergillus fumigatus ATCC 204305; assay: Antifungal microdilution broth method (EUCAST); format: cell-based; conditions: read-out: MIC AF
[17] = tested on: Enterococcus faecalis ATCC 29212, CCM 4224; assay: Antibacterial microdilution broth method (EUCAST); format: cell-based; conditions: read-out: MIC EF
[18] = tested on: Trichophyton interdigitale ATCC 9533, CCM 8377; assay: Antifungal microdilution broth method (EUCAST); format: cell-based; conditions: read-out: MIC TI
[19] = tested on: Candida krusei ATCC 6258, CCM 8271; assay: Antifungal microdilution broth method (EUCAST); format: cell-based; conditions: Pichia kudriavzevii, read-out: MIC CK
[20] = tested on: Acinetobacter baumanii ATCC 19606, DSM 30007; assay: Antibacterial microdilution broth method (EUCAST); format: cell-based; conditions: Acinetobacter baumannii
[21] = tested on: Absidia corymbifera CCM 8077 (Lichtheimia corymbifera); assay: Antifungal microdilution broth method (EUCAST); format: cell-based; conditions: read-out: MIC AC
[22] = tested on: Escherichia coli ATCC 25922, CCM 3954; assay: Antibacterial microdilution broth method (EUCAST); format: cell-based; conditions: read-out: MIC EC
[23] = in vitro, Middlebrook 7H9 broth, resazurin
[24] = HepG2, 24 h incubation, > means higher concentration not reproducible due to precipitation
[25] = ATCC12478, Middlebrook 7H9 broth pH 6.6, read-out: MIC Mycobacterium kansasii
[26] = ATCC15769, Middlebrook 7H9 broth pH 6.6, read-out: MIC Mycobacterium avium

## CCCCCNc1cnc(C(=O)Nc2ccc(Cl)cc2O)cn1 [Compound 6c, N-(4-chloro-2-hydroxyphenyl)-5-(pentylamino)pyrazine-2-carboxamide]
[1]; [23]
  MIC: ≥ 500 µg/mL
[2]; [23]
  MIC: 3.91 µg/mL (≈ 11.7 µM)
HepG2 cells; [24]
  IC50: 81.1 µM
other
  melting point: 206.5 to 208.7 °C
[3]; [23]
  MIC: ≥ 500 µg/mL
[4]
  Solubility problem in antibacterial/antifungal testing: did not dissolve in DMSO
[5]; [25]
  MIC: 25 µg/mL (≈ 74.7 µM)
[6]; [26]
  MIC: > 100 µg/mL

## CCCCCCCNc1cnc(C(=O)Nc2ccc(C)cc2)cn1 [Compound 4e, 5-(Heptylamino)-N-(p-tolyl)pyrazine-2-carboxamide]
[7]; 72 h
  MIC: > 500 µM
[7]; 120 h
  MIC: > 500 µM
[8]; 24 h
  MIC: > 125 µM
[8]; 48 h
  MIC: > 125 µM
[1]; MIC converted to µM
  MIC: 2.39 µM
[1]; [23]
  MIC: 0.78 µg/mL
[2]
  MIC: ≥ 500 µg/mL
HepG2 cells; HepG2, 24 h
  IC50: > 50 µM
HepG2 cells; IC50 (HepG2)/MIC against Mtb H37Ra (in µM)
  SI, selectivity index: >20.91
[9]; 24 h
  MIC: > 125 µM
[9]; 48 h
  MIC: > 125 µM
other
  melting point: 157.8 to 158.9 °C
[10]; 24 h
  MIC: > 500 µM
[10]; 48 h
  MIC: > 500 µM
[3]
  MIC: ≥ 500 µg/mL
[11]; 24 h
  MIC: > 500 µM
[11]; 48 h
  MIC: > 500 µM
[12]; 24 h
  MIC: > 125 µM
[12]; 48 h
  MIC: > 125 µM
[13]; 24 h
  MIC: > 500 µM
[13]; 48 h
  MIC: > 500 µM
[14]; 24h
  MIC KP: > 500 µM
[14]; 48h
  MIC KP: > 500 µM
[15]; CCM8363, 24 h
  MIC: > 125 µM
[15]; CCM8363, 48 h
  MIC: > 125 µM
[5]; ATCC12478, pH 6.6, read-out: MIC Mycobacterium kansasii
  MIC: 12.5 µg/mL (≈ 38.3 µM)
[16]; ATCC204305, 24 h
  MIC: > 125 µM
[16]; ATCC204305, 48 h
  MIC: > 125 µM
[17]; 24 h
  MIC: > 500 µM
[17]; 48 h
  MIC: > 500 µM
[6]; ATCC15769, pH 6.6, read-out: MIC Mycobacterium avium
  MIC: > 100 µg/mL
[18]; 72 h
  MIC: > 125 µM
[18]; 120 h
  MIC: > 125 µM
[19]; 24 h
  MIC: > 125 µM
[19]; 48 h
  MIC: > 125 µM
[20]; 24h
  MIC: > 500 µM
[20]; 48h
  MIC: > 500 µM
[21]; CCM8077, 24 h
  MIC: > 125 µM
[21]; CCM8077, 48 h
  MIC: > 125 µM
[22]; 24 h
  MIC: > 500 µM
[22]; 48 h
  MIC: > 500 µM

## CCCCCCCNc1cnc(C(=O)Nc2cc(Cl)ccc2O)cn1 [Compound 7e, N-(5-chloro-2-hydroxyphenyl)-5-(heptylamino)pyrazine-2-carboxamide]
[1]
  MIC: ≥ 500 µg/mL
[2]
  MIC: 31.2 µg/mL (≈ 86.1 µM)
HepG2 cells; [24]
  IC50: > 10 µM
other
  melting point: 243.6 to 246 °C
[3]
  MIC: ≥ 500 µg/mL
[4]
  Solubility problem in antibacterial/antifungal testing: did not dissolve in DMSO

## NNC(=O)c1ccncc1 [INH, isoniazid, reference compound]
[1]; [23]
  MIC: 0.125 to 0.25 µg/mL
[2]; [23]
  MIC: 7.81 to 15.6 µg/mL (≈ 56.9 to 114 µM)
[3]; [23]
  MIC: 3.91 to 7.81 µg/mL (≈ 28.5 to 56.9 µM)
[5]; [25]
  MIC: 25 µg/mL (≈ 182 µM)
[6]; [26]
  MIC: 25 µg/mL (≈ 182 µM)
